The results in this text go back to BindingDB's records for doi:10.1021/jm960416g (Universidad Complutense, 1996).

Each structure is given as a SMILES string.

The target of one experiment is D(2) dopamine receptor (Rattus norvegicus, UniProt P61169). Briefly: Binding affinity towards dopamine receptor D2 using [3H]-raclopride radioligand.
Experiment [1] addresses T1, 5-hydroxytryptamine receptor 1A (Rattus norvegicus, UniProt P19327).
T1 sequence (P19327 whole entry): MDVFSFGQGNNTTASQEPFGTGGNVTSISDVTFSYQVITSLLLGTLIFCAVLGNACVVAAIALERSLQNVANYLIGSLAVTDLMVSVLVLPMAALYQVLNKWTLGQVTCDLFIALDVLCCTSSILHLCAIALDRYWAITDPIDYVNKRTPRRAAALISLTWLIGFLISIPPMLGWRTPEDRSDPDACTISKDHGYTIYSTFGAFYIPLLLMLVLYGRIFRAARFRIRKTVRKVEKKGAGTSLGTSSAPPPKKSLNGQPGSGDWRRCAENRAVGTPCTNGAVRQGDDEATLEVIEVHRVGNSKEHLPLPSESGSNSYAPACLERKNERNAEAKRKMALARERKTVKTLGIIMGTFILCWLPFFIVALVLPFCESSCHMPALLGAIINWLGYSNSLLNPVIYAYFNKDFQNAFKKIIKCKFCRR
Briefly: Binding affinity towards rat 5-hydroxytryptamine 1A receptor using [3H]8-OH-DPAT radioligand.

Chain of D(2) dopamine receptor (P61169 whole entry): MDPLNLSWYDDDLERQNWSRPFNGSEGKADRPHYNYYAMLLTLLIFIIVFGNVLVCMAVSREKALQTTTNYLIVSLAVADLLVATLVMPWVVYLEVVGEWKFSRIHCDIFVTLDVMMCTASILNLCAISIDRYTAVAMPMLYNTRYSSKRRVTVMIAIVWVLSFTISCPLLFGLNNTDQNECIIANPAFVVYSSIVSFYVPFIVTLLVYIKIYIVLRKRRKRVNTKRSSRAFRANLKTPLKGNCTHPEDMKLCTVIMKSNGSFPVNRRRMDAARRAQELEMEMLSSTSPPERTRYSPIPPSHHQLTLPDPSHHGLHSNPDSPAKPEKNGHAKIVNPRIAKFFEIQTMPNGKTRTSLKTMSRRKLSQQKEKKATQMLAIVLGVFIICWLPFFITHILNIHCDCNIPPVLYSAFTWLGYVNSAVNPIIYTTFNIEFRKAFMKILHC

Turning to `O=c1n(CCN2CCN(c3ccccc3)CC2)c(O)c2n1CCC2` [2-[2-(4-Phenyl-piperazin-1-yl)-ethyl]-tetrahydro-pyrrolo[1,2-c]imidazole-1,3-dione], the Ki (at D(2) dopamine receptor; in experiment [1]) was greater than 1000 nM each time.

Turning to `O=c1n(CCN2CCN(c3ccc([N+](=O)[O-])cc3)CC2)c(O)c2n1CCC2` [2-{2-[4-(4-Nitro-phenyl)-piperazin-1-yl]-ethyl}-tetrahydro-pyrrolo[1,2-c]imidazole-1,3-dione], the inhibition constant (Ki) (on D(2) dopamine receptor; in experiment [1]) was greater than 10000 nM throughout.

Regarding `O=c1n(CCN2CCN(c3cccc(Cl)c3)CC2)c(O)c2n1CCCC2` [2-{2-[4-(3-Chloro-phenyl)-piperazin-1-yl]-ethyl}-tetrahydro-imidazo[1,5-a]pyridine-1,3-dione], the Ki (usually a dissociation constant, usually derived from enzyme kinetics or from competition with a known ligand) at D(2) dopamine receptor was greater than 1000 nM.

Regarding `O=c1n(CCCN2CCN(c3cccc(Cl)c3)CC2)c(O)c2n1CCCC2` [2-{3-[4-(3-Chloro-phenyl)-piperazin-1-yl]-propyl}-tetrahydro-imidazo[1,5-a]pyridine-1,3-dione], on D(2) dopamine receptor, the Ki was greater than 1000 nM.

Consider `O=c1n(CCCCN2CCN(c3ccc([N+](=O)[O-])cc3)CC2)c(O)c2n1CCCC2` [2-{4-[4-(4-Nitro-phenyl)-piperazin-1-yl]-butyl}-tetrahydro-imidazo[1,5-a]pyridine-1,3-dione], for which the Ki (on D(2) dopamine receptor; in experiment [1]) was greater than 1000 nM in each case.

On D(2) dopamine receptor, `O=c1n(CN2CCN(c3cccc(Cl)c3)CC2)c(O)c2n1CCCC2` [2-[4-(3-Chloro-phenyl)-piperazin-1-ylmethyl]-tetrahydro-imidazo[1,5-a]pyridine-1,3-dione] showed an inhibition constant Ki greater than 10000 nM.

The molecule `O=c1n(CN2CCN(c3cccc(C(F)(F)F)c3)CC2)c(O)c2n1CCC2` [2-[4-(3-Trifluoromethyl-phenyl)-piperazin-1-ylmethyl]-tetrahydro-pyrrolo[1,2-c]imidazole-1,3-dione] returned an inhibitory constant (Ki) on D(2) dopamine receptor greater than 1000 nM.

With `O=c1n(CN2CCN(c3ccc([N+](=O)[O-])cc3)CC2)c(O)c2n1CCCC2` [2-[4-(4-Nitro-phenyl)-piperazin-1-ylmethyl]-tetrahydro-imidazo[1,5-a]pyridine-1,3-dione], the figures for the inhibition constant (Ki) (on D(2) dopamine receptor; in experiment [1]) were greater than 10000 nM and greater than 1000 nM, respectively.

At D(2) dopamine receptor, `O=c1n(CCCN2CCN(c3ccc(F)cc3)CC2)c(O)c2n1CCCC2` returned an inhibition constant (Ki) greater than 1000 nM.

In turn, `O=c1n(CCCCN2CCN(c3ccccc3)CC2)c(O)c2n1CCCC2` [2-[4-(4-Phenyl-piperazin-1-yl)-butyl]-tetrahydro-imidazo[1,5-a]pyridine-1,3-dione] showed a Ki at D(2) dopamine receptor greater than 1000 nM.

For `COc1ccccc1N1CCN(CCCn2c(O)c3n(c2=O)CCCC3)CC1` [2-{3-[4-(2-Methoxy-phenyl)-piperazin-1-yl]-propyl}-tetrahydro-imidazo[1,5-a]pyridine-1,3-dione], the inhibition constant Ki on D(2) dopamine receptor was greater than 1000 nM.

The molecule `O=c1n(CN2CCN(c3ccc(F)cc3)CC2)c(O)c2n1CCC2` [2-[4-(4-Fluoro-phenyl)-piperazin-1-ylmethyl]-tetrahydro-pyrrolo[1,2-c]imidazole-1,3-dione] gave a Ki at D(2) dopamine receptor greater than 10000 nM.

Molecule `O=c1n(CN2CCN(c3ccccc3)CC2)c(O)c2n1CCCC2` [2-(4-Phenyl-piperazin-1-ylmethyl)-tetrahydro-imidazo[1,5-a]pyridine-1,3-dione] returned an inhibition constant (Ki) on D(2) dopamine receptor greater than 10000 nM.

Turning to `O=c1n(CN2CCN(c3ccccc3)CC2)c(O)c2n1CCC2` [2-(4-Phenyl-piperazin-1-ylmethyl)-tetrahydro-pyrrolo[1,2-c]imidazole-1,3-dione], the inhibition constant (Ki) at D(2) dopamine receptor was greater than 10000 nM.

In turn, `O=c1n(CCN2CCN(c3cccc(C(F)(F)F)c3)CC2)c(O)c2n1CCC2` [2-{2-[4-(3-Trifluoromethyl-phenyl)-piperazin-1-yl]-ethyl}-tetrahydro-pyrrolo[1,2-c]imidazole-1,3-dione] came in with a Ki at D(2) dopamine receptor greater than 1000 nM.

Consider `COc1ccccc1N1CCN(CCCCn2c(O)c3n(c2=O)CCCC3)CC1` [2-{4-[4-(2-Methoxy-phenyl)-piperazin-1-yl]-butyl}-tetrahydro-imidazo[1,5-a]pyridine-1,3-dione], for which the Ki at D(2) dopamine receptor was greater than 1000 nM.

`COc1ccccc1N1CCN(Cn2c(O)c3n(c2=O)CCC3)CC1` [2-[4-(2-Methoxy-phenyl)-piperazin-1-ylmethyl]-tetrahydro-pyrrolo[1,2-c]imidazole-1,3-dione] showed a Ki at D(2) dopamine receptor greater than 1000 nM.

As for `O=c1n(CCN2CCN(c3cccc(C(F)(F)F)c3)CC2)c(O)c2n1CCCC2` [2-{2-[4-(3-Trifluoromethyl-phenyl)-piperazin-1-yl]-ethyl}-tetrahydro-imidazo[1,5-a]pyridine-1,3-dione], at D(2) dopamine receptor, the Ki is greater than 1000 nM.

In turn, `O=c1n(CN2CCN(c3cccc(C(F)(F)F)c3)CC2)c(O)c2n1CCCC2` [2-[4-(3-Trifluoromethyl-phenyl)-piperazin-1-ylmethyl]-tetrahydro-imidazo[1,5-a]pyridine-1,3-dione] came in with a Ki on D(2) dopamine receptor greater than 1000 nM.

As to `O=c1n(CCN2CCN(c3ccc(F)cc3)CC2)c(O)c2n1CCCC2` [2-{2-[4-(4-Fluoro-phenyl)-piperazin-1-yl]-ethyl}-tetrahydro-imidazo[1,5-a]pyridine-1,3-dione], the inhibition constant (Ki) (on D(2) dopamine receptor; in experiment [1]) was greater than 10000 nM each time.

In the case of `O=c1n(CCN2CCN(c3ccc([N+](=O)[O-])cc3)CC2)c(O)c2n1CCCC2` [2-{2-[4-(4-Nitro-phenyl)-piperazin-1-yl]-ethyl}-tetrahydro-imidazo[1,5-a]pyridine-1,3-dione], the Ki (at D(2) dopamine receptor; in experiment [1]) was greater than 10000 nM in each case.

With `O=c1n(CCCN2CCN(c3ccc([N+](=O)[O-])cc3)CC2)c(O)c2n1CCC2` [2-{3-[4-(4-Nitro-phenyl)-piperazin-1-yl]-propyl}-tetrahydro-pyrrolo[1,2-c]imidazole-1,3-dione], the Ki (on D(2) dopamine receptor; in experiment [1]) was greater than 10000 nM in each case.

On D(2) dopamine receptor, `O=c1n(CCCCN2CCN(c3cccc(C(F)(F)F)c3)CC2)c(O)c2n1CCC2` [2-{4-[4-(3-Trifluoromethyl-phenyl)-piperazin-1-yl]-butyl}-tetrahydro-pyrrolo[1,2-c]imidazole-1,3-dione] yielded a Ki greater than 1000 nM.

As for `O=c1n(CCCCN2CCN(c3ccc(F)cc3)CC2)c(O)c2n1CCC2` [2-{4-[4-(4-Fluoro-phenyl)-piperazin-1-yl]-butyl}-tetrahydro-pyrrolo[1,2-c]imidazole-1,3-dione], the inhibitory constant (Ki) on D(2) dopamine receptor is greater than 1000 nM.

As to `COc1ccccc1N1CCN(CCCn2c(O)c3n(c2=O)CCC3)CC1` [2-{3-[4-(2-Methoxy-phenyl)-piperazin-1-yl]-propyl}-tetrahydro-pyrrolo[1,2-c]imidazole-1,3-dione], on D(2) dopamine receptor, the Ki was greater than 1000 nM.

Molecule `O=c1n(CCCN2CCN(c3cccc(Cl)c3)CC2)c(O)c2n1CCC2` [2-{3-[4-(3-Chloro-phenyl)-piperazin-1-yl]-propyl}-tetrahydro-pyrrolo[1,2-c]imidazole-1,3-dione] gave a Ki on D(2) dopamine receptor greater than 1000 nM.

`O=c1n(CCCN2CCN(c3ccc(F)cc3)CC2)c(O)c2n1CCC2` [2-{3-[4-(4-Fluoro-phenyl)-piperazin-1-yl]-propyl}-tetrahydro-pyrrolo[1,2-c]imidazole-1,3-dione]: the Ki (at D(2) dopamine receptor; in experiment [1]) was greater than 1000 nM each time.

At D(2) dopamine receptor, `O=c1n(CN2CCN(c3ccc(F)cc3)CC2)c(O)c2n1CCCC2` [2-[4-(4-Fluoro-phenyl)-piperazin-1-ylmethyl]-tetrahydro-imidazo[1,5-a]pyridine-1,3-dione] displayed a Ki greater than 10000 nM.

With `O=c1n(CCCN2CCN(c3ccccc3)CC2)c(O)c2n1CCCC2` [2-[3-(4-Phenyl-piperazin-1-yl)-propyl]-tetrahydro-imidazo[1,5-a]pyridine-1,3-dione], the Ki at D(2) dopamine receptor is greater than 1000 nM.

The molecule `O=c1n(CCCN2CCN(c3cccc(C(F)(F)F)c3)CC2)c(O)c2n1CCCC2` [2-{3-[4-(3-Trifluoromethyl-phenyl)-piperazin-1-yl]-propyl}-tetrahydro-imidazo[1,5-a]pyridine-1,3-dione] registered an inhibitory constant (Ki) at D(2) dopamine receptor greater than 1000 nM.

For `O=c1n(CCCN2CCN(c3ccc([N+](=O)[O-])cc3)CC2)c(O)c2n1CCCC2` [2-{3-[4-(4-Nitro-phenyl)-piperazin-1-yl]-propyl}-tetrahydro-imidazo[1,5-a]pyridine-1,3-dione], the Ki (on D(2) dopamine receptor; in experiment [1]) was greater than 10000 nM each time.

Turning to `O=c1n(CN2CCN(c3ccc([N+](=O)[O-])cc3)CC2)c(O)c2n1CCC2` [2-[4-(4-Nitro-phenyl)-piperazin-1-ylmethyl]-tetrahydro-pyrrolo[1,2-c]imidazole-1,3-dione], the inhibition constant (Ki) was greater than 10000 nM on D(2) dopamine receptor and greater than 1000 nM in experiment [1].

Regarding `O=c1n(CCCCN2CCN(c3ccc([N+](=O)[O-])cc3)CC2)c(O)c2n1CCC2`, the Ki (on D(2) dopamine receptor; in experiment [1]) was greater than 1000 nM each time.

The molecule `O=c1n(CCN2CCN(c3cccc(Cl)c3)CC2)c(O)c2n1CCC2` [2-{2-[4-(3-Chloro-phenyl)-piperazin-1-yl]-ethyl}-tetrahydro-pyrrolo[1,2-c]imidazole-1,3-dione] displayed an inhibitory constant (Ki) at D(2) dopamine receptor greater than 1000 nM.

For `COc1ccccc1N1CCN(Cn2c(O)c3n(c2=O)CCCC3)CC1` [2-[4-(2-Methoxy-phenyl)-piperazin-1-ylmethyl]-tetrahydro-imidazo[1,5-a]pyridine-1,3-dione], the inhibition constant Ki at D(2) dopamine receptor was greater than 10000 nM.

On to `O=c1n(CN2CCN(c3cccc(Cl)c3)CC2)c(O)c2n1CCC2` [2-[4-(3-Chloro-phenyl)-piperazin-1-ylmethyl]-tetrahydro-pyrrolo[1,2-c]imidazole-1,3-dione], for which the inhibitory constant (Ki) at D(2) dopamine receptor was greater than 10000 nM.

In the case of `O=c1n(CCCN2CCN(c3cccc(C(F)(F)F)c3)CC2)c(O)c2n1CCC2` [2-{3-[4-(3-Trifluoromethyl-phenyl)-piperazin-1-yl]-propyl}-tetrahydro-pyrrolo[1,2-c]imidazole-1,3-dione], the inhibition constant Ki at D(2) dopamine receptor is greater than 1000 nM.

Turning to `O=c1n(CCCN2CCN(c3ccccc3)CC2)c(O)c2n1CCC2` [2-[3-(4-Phenyl-piperazin-1-yl)-propyl]-tetrahydro-pyrrolo[1,2-c]imidazole-1,3-dione], the inhibition constant Ki on D(2) dopamine receptor was greater than 1000 nM.
